# How the values were obtained:
# Type in all cases: physicochemical
# [1] = 90% particle size distribution of bead mill wet-pulverized product, Mastersizer 2000 (Test Example 5); conditions: Mastersizer 2000, SDS aqueous dispersion
# Procedure: The obtained slurry was wet-pulverized with a bead mill (DYNO-MILL nanodisperser research lab type, Willy A. Bachofen AG) and then filtered to obtain an anhydrate crystal (90% particle size distribution: 2.791 μm) of the compound represented by Formula (I). The 90% particle size distribution was measured by the method described in Test Example 5.
# A 90% particle size distribution was measured according to the following method and conditions. • Measuring instrument: particle size distribution measuring apparatus (Mastersizer 2000, Malvern Panalytical Ltd) • Dispersion solvent: 0.1 g of sodium dodecyl sulfate (SDS) was dissolved in 1 L of water • Rotation speed: 2500 rpm • Ultrasound: 50% • Slurry concentration: adjusted between 10 to 20%
# [2] = Stability testing, study of stabilizer / blending property test (Test Example 9)
# Procedure: A blending property test was performed on the compound represented by Formula (I) or the like and an additive, and the amount of the compound represented by Formula (III) in the product stored over time was evaluated. The sample and additive used in Reference Example 4 were weighed and mixed uniformly with a mortar and a pestle. An appropriate amount of purified water was added to the mixture, and wet kneading was performed with a pestle. The resulting granulated product was sieved with a 20-mesh wire mesh, and dried at an aeration temperature of 60° C. for 30 minutes in an aeration dryer (TH-80, SATAKE CHEMICAL EQUIPMENT MFG., LTD.). Thereafter, the resulting product was further sieved with a 20-mesh wire mesh to obtain samples of Examples 10 to 14.
# The samples of Examples 10 to 14 were subjected to a stability testing under a condition of 60° C. glass bottle closed (referred to as 60° C. closed in Table 17) and 40° C. glass bottle closed (referred to as 40° C. closed in Table 17) to evaluate the content of the compound represented by Formula (III).
# The content of the compound represented by Formula (II) was confirmed in the same manner as in Test Example 7.
# [3] = Stability testing of wet-kneaded vs untreated dry-pulverized product (Test Example 7)
# Procedure: A standard sample of 5 ng/mL (corresponding to 5 ppm with respect to the sample solution) of the compound represented by Formula (ITI) was prepared by the following method. Step 1: About 20 mg of the compound represented by Formula (III) was weighed precisely, and a mixed solution of acetonitrile and water (4:1) was added to dissolve the compound to make exactly 100 mL. Step 2: One milliliter of the solution of Step 1 was accurately taken, and a mixed solution of acetonitrile and water (4:1) was added to make exactly 100 mL. Step 3: One milliliter of the solution of Step 2 was accurately taken, and a mixed solution of acetonitrile and water (4:1) was added to make exactly 100 mL. Step 4: Five milliliters of the solution of […] was accurately taken, and a mixed solution of acetonitrile and water (4:1) was added to make exactly 20 mL, thereby obtaining a standard solution. Step 1: A sample in an amount corresponding to 50 mg of the compound represented by Formula (I) or the like was added to a 50 mL volumetric flask. Step 2: To Step 1 was added 10 mL of water, and the mixture was irradiated with ultrasonic waves for 10 minutes to disintegrate the sample completely. The ultrasonic irradiation time was extended as necessary. Step 3: To Step 2 was added 25 mL of acetonitrile, and the mixture was irradiated with ultrasonic waves for 30 minutes. Step 4: After cooling, acetonitrile was added to make exactly 50 mL, a part of the liquid was centrifuged at 13000 rpm for 10 minutes, and the supernatant was used as a sample solution. An amount of the compound represented by Formula (III) was measured with a liquid chromatograph according to the following method and conditions. • Measuring instrument: LC/MS/MS (PM No. AES676) manufactured by Agilent Technologies, Inc. • Column: L-column 24.6×150 mm, 3 μm • Column temperature: constant temperature at near 35° C. • Mobile phase A: 10 mM ammonium acetate • Mobile phase B: acetonitrile for liquid chromatography • Feed of mobile phase: The mixing ratio of mobile phase A and mobile phase B was changed as shown in Table 14 to control concentration gradient. • Post runtime: 5 minutes • Flow rate: 0.5 mL/min (retention time of S202AA: about 9 minutes) • Injection amount: 5 μL • Sample cooler temperature: constant temperature at near 10° C. • Needle washing solution: acetonitrile for liquid chromatography • Ionization method: ESI • Scan type: MEM • Polarity: positive • Precursor ion: m/z=187.2 • Product ion: m/z=64.9 • Fragmentor: 120 • Collision energy: 33 • Capillary: 4000 V • Gas temperature: 350° C. • Gas flow rate: 12 L/min • Nebulizer: 40 psi • MS uptake time: 0 to 12 minutes (Calculation Formula) Content (ppm) of compound represented by Formula(III)=MS×P/100×(100−WS)/100×AT/AS×1/50×1/80000×1000000 (Mathematical formula 6) • MS: Weighing amount (mg) of compound represented by Formula (III) • P: Purity (%) of compound represented by Formula (III) • WS: Moisture (%) of compound represented by Formula (JII) • AS: Peak area of compound represented by Formula (III) obtained from standard solution • AT: Peak area of compound represented by Formula (III) obtained from sample solution (Results)
# [4] = 40° C. glass bottle closed, 1 month
# [5] = 40° C. glass bottle closed, 2 weeks
# [6] = 40° C. glass bottle closed, 3 months
# [7] = 60° C. glass bottle closed, 2 weeks
Structure (SMILES),90% particle size distribution [1] [μm],"Amount of compound represented by Formula (III), 40° C. closed 1M [2, 4] [ppm]","Amount of compound represented by Formula (III), 40° C. closed 2W [2, 5] [ppm]","Amount of compound represented by Formula (III), 40° C. closed 3M [2, 6] [ppm]","Amount of compound represented by Formula (III), 60° C. closed 2W [2, 7] [ppm]","Amount of compound represented by Formula (III), Initial ([2]; start of test) [ppm]","Content of compound represented by Formula (III), 40° C. glass bottle closed 1M [3, 4] [ppm]","Content of compound represented by Formula (III), 40° C. glass bottle closed 2W [3, 5] [ppm]","Content of compound represented by Formula (III), 40° C. glass bottle closed 3M [3, 6] [ppm]","Content of compound represented by Formula (III), 40° C./75% RH glass bottle opened 1M ([3]; 40° C./75% RH glass bottle opened, 1 month) [ppm]","Content of compound represented by Formula (III), 40° C./75% RH glass bottle opened 2W ([3]; 40° C./75% RH glass bottle opened, 2 weeks) [ppm]","Content of compound represented by Formula (III), 40° C./75% RH glass bottle opened 3M ([3]; 40° C./75% RH glass bottle opened, 3 months) [ppm]","Content of compound represented by Formula (III), 60° C. glass bottle closed 2W [3, 7] [ppm]","Content of compound represented by Formula (III), Initial ([3]; start of test) [ppm]"
C[C@@H](Cn1c(=O)[nH]/c(=N\c2ccc(Oc3ccccn3)cc2)n(Cc2ccc(Cl)cc2)c1=O)C(=O)O [Example 7],2.791,,,,,,,,,,,,,
C[C@@H](Cn1c(=O)[nH]/c(=N\c2ccc(Oc3ccccn3)cc2)n(Cc2ccc(Cl)cc2)c1=O)C(=O)O [Reference Example 4],,17.2,10.7,23.9,10.9,3.0,17.2,10.7,23.9,13.1,9.4,19.7,10.9,3.0
